# In patent US12433953B2, “Compositions and methods related to tumor activated antibodies targeting EGFR and effector cell antigens” (Janux Therapeutics, Inc., priority 2021, dated 2025):
# Experiments:
# [1] = biological target: EGFR IgG; assay: ELISA binding of peptides to EGFR IgG; conditions: Table 12; antibody concentration for half maximal signal; read-out: EC50 for peptide binding to EGFR IgG
# [2] = biological target: EGFR IgG binding to the EGFR antigen; assay: ELISA competitive inhibition of EGFR IgG binding to EGFR antigen; conditions: for IC50: read-out: IC50 for peptide inhibition of EGFR IgG binding to EGFR antigen, Table 13
# [3] = biological target: EGFR Fab; assay: ELISA binding of peptides to EGFR Fab; conditions: read-out: EC50 for peptide binding to αEGFR Fab; Table 16
SMILES,EC50 [1] [nM],IC50 [2] [nM],inhibiting EGFR IgG binding to the EGFR antigen (in words) ([2]; among peptide-1 to peptide-6),EC50 [3] [nM]
CC(C)[C@@H]1NC(=O)[C@H](CCCNC(=N)N)NC(=O)[C@H](CC(=O)O)NC(=O)[C@H](Cc2c[nH]c3ccccc23)NC(=O)[C@H](CCC(N)=O)NC(=O)[C@@H](NC(=O)[C@@H](N)CC(N)=O)CSSC[C@@H](C(=O)N[C@@H](CO)C(=O)O)NC(=O)[C@H](C)NC(=O)[C@H](Cc2ccc(O)cc2)NC(=O)[C@H]([C@@H](C)O)NC(=O)[C@H](Cc2c[nH]cn2)NC(=O)[C@H](CCC(=O)O)NC1=O [Peptide-3],413,> 300,–,–
CSCC[C@H](N)C(=O)N[C@@H](CC(N)=O)C(=O)N[C@H]1CSSC[C@@H](C(=O)N[C@@H](CC(C)C)C(=O)N[C@H](C(=O)O)C(C)C)NC(=O)[C@H](Cc2ccc(O)cc2)NC(=O)[C@H](CCC(=O)O)NC(=O)[C@H](C(C)C)NC(=O)[C@H](Cc2c[nH]c3ccccc23)NC(=O)[C@H](CC(C)C)NC(=O)[C@H](CCCNC(=N)N)NC(=O)[C@H](CC(N)=O)NC(=O)[C@H](CC(C)C)NC1=O [Peptide-5],2,> 300,–,–
CC(C)[C@@H]1NC(=O)[C@H](Cc2c[nH]c3ccccc23)NC(=O)[C@H]([C@@H](C)O)NC(=O)[C@H](CC(N)=O)NC(=O)[C@H](CC(=O)O)NC(=O)[C@H](CCC(N)=O)NC(=O)CNC(=O)[C@@H](NC(=O)[C@@H](N)Cc2ccc(O)cc2)CSSC[C@@H](C(=O)N[C@@H](Cc2ccccc2)C(=O)O)NC(=O)CNC(=O)[C@H](CCC(=O)O)NC(=O)[C@H](CCCNC(=N)N)NC1=O [Peptide-6],0.3,–,most effective at inhibiting EGFR IgG binding to the EGFR antigen,458

# Continued by falling EC50 [1], values first:
EC50 [1] [nM],IC50 [2] [nM],SMILES,inhibiting EGFR IgG binding to the EGFR antigen (in words) ([2]; among peptide-1 to peptide-6),EC50 [3] [nM]
84,> 300,CC[C@H](C)[C@@H]1NC(=O)[C@H](CC(C)C)NC(=O)[C@H](Cc2c[nH]cn2)NC(=O)[C@H](C)NC(=O)[C@H](CC(=O)O)NC(=O)[C@H](C)NC(=O)[C@@H](NC(=O)[C@H](CO)NC(=O)[C@@H](N)[C@@H](C)O)CSSC[C@@H](C(=O)N[C@@H](CO)C(=O)O)NC(=O)[C@H](CO)NC(=O)[C@@H]2CCCN2C(=O)[C@H](C)NC1=O [Peptide-2],–,–
52,> 300,CSCC[C@@H]1NC(=O)[C@H](CC(C)C)NC(=O)[C@H](CO)NC(=O)[C@H](CCCNC(=N)N)NC(=O)[C@@H](NC(=O)[C@H](Cc2c[nH]c3ccccc23)NC(=O)[C@@H](N)CC(=O)O)CSSC[C@@H](C(=O)N2CCC[C@H]2C(=O)O)NC(=O)[C@H](CC(C)C)NC(=O)[C@H](CC(=O)O)NC(=O)[C@H]([C@@H](C)O)NC(=O)[C@H](Cc2ccc(O)cc2)NC(=O)[C@H](CO)NC1=O [Peptide-1],–,–
